Laboratory results from patent US9486472B2, “Methods for modulating neuronal responses” (UNIVERSITY OF BRITISH COLUMBIA CANADA, priority 2003, dated 2016).

Key:
pp60 c-Src = pp60 c-Src (Homo sapiens, UniProt P12931); test: In vitro kinase assay with active recombinant Src; type: biochemical; settings: GST fusion protein as substrate
From the text: FIGS. 7 A-D. Insulin increases phosphorylation of tyrosine residues within the GluR2 carboxyl terminal (CT) region. A. In vitro tyrosine phosphorylation of the GluR2 CT. GST fusion proteins of the GluR1 CT (GST-GluR1CT), the GluR2 CT (GST-GluR2CT), residues 869-876 (YKEGYNVYG (SEQ ID NO. 4)) of the GluR2 CT (GST-GluR23Y), which contains a cluster of three tyrosine residues (Y869, Y873, and Y876) and the same amino acid stretch of the GluR2 CT with its tyrosine residues replaced by alanines (GST-GluR23A), along with the GST back bone (GST) as control, were incubated in the absence (−) or presence (+) of active recombinant pp60 c-Src. Phosphorylation products were immunoblotted using an anti-phosphotyrosine antibody (top panel). […] B. Expression levels of HA-GluR2 and HA-GluR23Y-3A (where tyrosines 869, 873 and 876 were mutated to alanines) 48 h after transient transfection into HEK293 cells were determined by a cell ELISA assay using permeabilized cells. C. HEK293 cells transiently transfected with HA-GluR1, HA-GluR2 or HA-GluR23Y-3A, along with empty vector (mock transfection) as control. Forty-eight hours later, the cells were treated with or without 0.5 μM insulin for 10 min. The lysates were then subjected to immunoprecipitation with an anti-HA antibody under denaturing conditions and immunoblotting with an anti-phosphotyrosine antibody (Top blot; IB: PY). […]

[1] = system: CA1 neurons in hippocampal slices; test: LFS-induced hippocampal CA1 long-term depression (LTD); type: cell-based, rat; settings: postsynaptic application, 100 μg/ml; 1 Hz for 15 min
Description: Hippocampal slices (400 μm thickness) were prepared from Sprague-Dawley rats aged 16-26 postnatal days and perfused at room temperature with artificial cerebrospinal fluid containing (mM): 126 NaCl, 26 NaHCO3, 10 glucose, 3 KCl, 1.2 KH2PO4, 1 MgCl2, and 1 CaCl2, saturated with 95% O2/5% CO2^14. The recording pipettes (4-5 MO) were filled with solution containing (mM): 135 CsCl, 10 HEPES, 5 QX-314, 4 Mg-ATP, 2 MgCl2, 0.5 EGTA, 0.2 GTP and 0.1 CaCl2, pH 7.4, 310 mOsm. Whole-cell recording of CA1 neurons and the induction of LFS-LTD were performed as previously described.^14
The level of GluR2 tyrosine phosphorylation was assayed following low-frequency stimulation (LFS) of hippocampal slices (1 Hz for 15 min, which reliably induces LTD under our experimental conditions), to determine whether tyrosine phosphorylation of GluR2 CT may be required for LFS-induced long term depression (LTD). Slices were homogenized in denaturing buffer 10 min after the stimulation and GluR subunits were immunoprecipitated and probed for phosphotyrosine. […] Induction of LTD by LFS was blocked by postsynaptic application of GST-GluR23Y (100 μg/ml), but not by the mutant peptide GST-GluR23A (100 μg/ml; FIG. 10B) or by GST-GluR2834-843 (FIG. 10C).

[2] = system: CA1 neurons in hippocampal slices; test: Insulin-induced depression of AMPA receptor-mediated EPSCs, whole-cell recording of CA1 neurons; type: cell-based, rat; settings: 100 μg/ml in recording pipette; insulin 0.5 μM in bath
Description: GST-GluR23Y and GST-GluR23A were constructed by subcloning corresponding PCR fragments into pGEX 4T-1 vectors. GST fusion proteins were expressed in DH5α E. coli and purified from bacterial lysates according to the manufacturer's protocol (Pharmacia). Products were dialyzed in PBS and concentrated using Microcon-10 columns (Amicon) for intracellular application during whole-cell recordings.
Hippocampal slices (400 μm thickness) were prepared from Sprague-Dawley rats aged 16-26 postnatal days and perfused at room temperature with artificial cerebrospinal fluid containing (mM): 126 NaCl, 26 NaHCO3, 10 glucose, 3 KCl, 1.2 KH2PO4, 1 MgCl2, and 1 CaCl2, saturated with 95% O2/5% CO2^14. The recording pipettes (4-5 MO) were filled with solution containing (mM): 135 CsCl, 10 HEPES, 5 QX-314, 4 Mg-ATP, 2 MgCl2, 0.5 EGTA, 0.2 GTP and 0.1 CaCl2, pH 7.4, 310 mOsm. Whole-cell recording of CA1 neurons and the induction of LFS-LTD were performed as previously described.^14 […]

[3] = system: cultured cortical neurons; test: OGD-induced neuronal apoptosis (Cell Death Detection ELISAplus), GluR2-CT with PEP-1; type: cell-based; settings: GluR2CT peptide (1 mM) with PEP-1, one hour before OGD; 24 hr after OGD
Description: (§1) Ischemia-like insult was mimicked by oxygen and glucose deprivation (OGD) for one hour in cultured cortical neurons (DIV 12-14). OGD is a well-characterized cell culture model of ischemia. GluR2CT peptide (1 mM) was delivered into neurons by mixing it with the carrier peptide PEP-1 and incubating neurons with the mixture for one hour before OGD challenge. […] (n=6; *: P<0.05, Student's test, compared with Control).

hippocampal neurons = test: NMDA- or STS-induced apoptosis in cultured hippocampal neurons (Cell Death ELISA, 11-dUTP, PI staining); type: cell-based, rat
Description: Hippocampi were rapidly removed from embryonic E l 8 Sprague Dawley rats and pooled prior to trituration. Hippocampal cell suspensions were plated onto poly-Dlysine coated culture dishes or glass coverslips and grown in Neurobasal™ media 10 (Invitrogen) for 14 days in vitro (DIV). The media from mature 14 DIV neurons was removed and replaced with 100 μM NMDA plus 10 μM glycine for 1 h at 37° C. prior to restoring neurons to the defined growth media. Twenty four hours after NMDA/glycine application, neurons were processed using cell death assays. NMDA-induced [Ca^2+]i responses were evoked and measured using methods described previously^26.
Apoptosis quantification: NMDA-induced apoptosis was quantified either using a Cell Death Detection Elisa Plus Kit (Roche Applied Sciences), which is based on the in vitro determination of cytoplasmic histone-associated DNA fragments, or using TdT mediated addition of biotinylated 11-dUTP to the free 3′-OH ends of DNA. Absorbance readings for both assays were carried out using a microplate reader.
Propidium Iodide (PI) staining of nuclei: After the induction of apoptosis, cells were fixed with 4% parafonnaldehyde/4% sucrose for 10 min followed by ice cold acetone for 1 min, and then stained with […] PI in Dulbecco's PBS for 30 min. Stained coverslips were mounted onto glass slides and viewed with a Leica fluorescence microscope to identify condensed nuclei. Cells with condensed nuclei were counted as apoptotic and the percentage of apoptotic cells to the total number of cells was calculated to give a semi-quantitative analysis, expressed as percentage of apoptosis.
A short peptide (YKEGYNVYGIE (SEQ ID NO. 2)) corresponding to amino acid residues from 869 to 879 of the C-terminus of GluR2 (R2-CT) was synthesized and incubated with a carrier protein (Pep-1)23 at a ratio of 1:20 in Dulbecco's modified Eagle's medium
(§2) (DMEM, Gibco) at 37° C. in a humidified atmosphere containing 5% CO2 for 30 min to allow the formation of R2-CT/Pep-1 complex. Hippocampal neurons (DW 12-14) were then overlaid with the preformed complex to reach a final R2-CT concentration of 1 μM and further incubated for 1 h before experiments commenced. Receptor Trafficking Assays

AMPA receptor [4] = test: OGD-induced decrease of cell-surface AMPA receptors (Cell-ELISA), cultured cortical neurons; type: cell-based; settings: GluR2CT peptide (1 mM) with PEP-1, one hour before OGD
Description: as §1

AMPA receptor [5] = test: Cell-ELISA of cell-surface AMPA receptors after NMDA treatment, hippocampal neurons; type: cell-based, rat; settings: 100 μM NMDA + 10 μM glycine 1 h; R2-CT delivered with Pep-1 one hour prior to and during NMDA
Description: as §2
Cell ELISA assay: Quantification of cell-surface AMPA or NMDA receptors was performed by a colorimetric cell-ELISA assay essentially as described previously^14. Briefly, hippocampal neurons were treated with 100 μM NMDA plus 10 μM glycine for 1 h and then fixed with 4% paraformaldehyde/4% sucrose in PBS for 10 min. Half of the cells in each treatment condition were then permeabilized with 0.1% Triton-X 100 for 5 min. Receptors on the plasma membrane surface and the total cellular pool were then determined by incubating the cells with monoclonal antibodies against the extracellular domains of GluR2 or NR1 (Chemicon, 1 μg/ml) overnight at 4° C., followed by incubation with HRP-conjugated anti-mouse IgG secondary antibody (1:1000, Amersham Life Sciences) for 1 h at room temperature. Following extensive washing with PBS, cells were incubated with OPD substrate (Sigma) for approximately 10 min. Reactions were stopped with 0.2 volumes of 3N HCl, and absorbance at 492 nm was read using a spectrophotometric microplate reader.

Row | Sequence | tyrosine phosphorylation by recombinant Src kinase (pp60 c-Src) | induction of LTD by LFS [1] | insulin-induced EPSC depression [2] | OGD-induced neuronal death [3] | NMDA-induced apoptosis, peptide or carrier alone (hippocampal neurons; R2-CT alone or Pep-1 alone) | STS-induced neuronal apoptosis (hippocampal neurons; staurosporine 100 nM, 1 h) | OGD-induced decrease in cell-surface AMPA receptor expression (AMPA receptor [4]) | NMDA-induced reduction of cell-surface AMPA receptors (AMPA receptor [5])
1 | GSTYKEGYNVYG [GST-GluR23Y, GST fusion protein of the nine amino-acid GluR2 CT stretch with three tyrosines] | phosphorylated | blocked | prevented | – | – | – | – | –
2 | YKEGYNVYGIE [R2-CT, short peptide corresponding to amino acid residues 869 to 879 of the C-terminus of GluR2] | – | – | – | largely prevented | neither R2-CT nor Pep-1 alone had any detectable effect | did not alter STS-induced neuronal apoptosis | reduced the OGD-induced decrease in cell-surface AMPA receptor expression | prevented
